This is an account of results in patent US6130215A, “Piperazinylalkylthiopyrimidine derivatives, pharmaceutical compositions containing the same and a process for the preparation of the novel compounds” (Egis Gyoyszergyar RT, priority 1995, dated 2000).

Test [1] has as its system rat stomach fundus smooth muscle. Kind of test: Inhibition of serotonin-induced contractions of isolated rat stomach fundus smooth muscle. It is filed as cell-based, rat (male Wistar). The following applies: 5-HT 10^-7 M, 37° C., read-out: Inhibition of 5-HT-evoked contractions of isolated rat stomach fundus, IC50. On the procedure:
The experiments were performed on male Wistar rats weighing 350 to 400 g. The animals were fasted for 24 hours before the experiments, however, they were allowed to drink tap water ad libitum. The method used was a modified version of Vane et al. /J. Pharmac. Chemother., 12, 344 (1957)/. The rats were killed by decapitation and their stomach was removed, and 3 mm wide and 20 to 30 mm long strips were cut in parallel with the greatest curvature of the stomach. The strips were incubated for 60 minutes in a 6 ml Lucite chamber filled with Tyrode solution (NaCl 136.9 mM, KCl2.7 mM, CaCl2 1.8 mM, MgCl2 1.0 mM, NaHCO3 11.9 mM, glucose 5.6 mM, NaH2 PO4 0.4 mM) warmed to 37° C. and bubbled with a gas consisting of 95% of oxygen and 5% of carbon dioxide. The strips were stretched with 0.5 g during the 60 minutes equilibration time and were washed every 20 minutes. The tension was measured isometrically by a strain gauge (Hugo Sachs) and was recorded on a Graphtech Mark VII 3101 polygraph.
Three control contractions were evoked by 5-HT added to the bath in 10^-7 M concentration (C1, C2, C3).
The effects of the test compounds were determined in 5 increasing concentrations (T2, T3, T4, T5, and T6). After determining the effect of two concentrations of the test compounds, the control 5-HT response was checked after each test measurement.
(§1) IC50 was calculated by nonlinear curve fitting of the inhibitory effect of increasing concentrations of the test compound.

The target of test [2] is T1, 5-HT2A receptor (Oryctolagus cuniculus, UniProt G1SYA7).
T1 construct: The thoracic aorta segment after the aortic arch was removed; from tissue; host or cells: rabbit thoracic aorta, helical strips
T1 sequence (G1SYA7 1-469): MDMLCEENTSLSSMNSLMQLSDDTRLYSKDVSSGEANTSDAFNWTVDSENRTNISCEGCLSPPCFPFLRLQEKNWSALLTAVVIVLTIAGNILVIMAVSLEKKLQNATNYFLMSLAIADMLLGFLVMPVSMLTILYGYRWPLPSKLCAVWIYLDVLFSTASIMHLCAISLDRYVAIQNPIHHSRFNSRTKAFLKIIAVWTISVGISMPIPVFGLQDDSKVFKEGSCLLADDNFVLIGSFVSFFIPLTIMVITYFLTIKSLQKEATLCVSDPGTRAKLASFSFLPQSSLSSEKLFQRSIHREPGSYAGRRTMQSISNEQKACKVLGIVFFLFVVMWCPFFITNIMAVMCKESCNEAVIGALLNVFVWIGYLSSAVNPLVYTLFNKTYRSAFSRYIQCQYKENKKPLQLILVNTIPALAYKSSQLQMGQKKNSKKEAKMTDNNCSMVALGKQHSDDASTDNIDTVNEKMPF
Description: 5-HT2A receptor antagonistic effect: inhibition of 5-HT-evoked contractions on isolated rabbit aortic strips. It is filed as cell-based, rabbit (New-Zealand, male, white). The following applies: 5-HT 10^-6 M; phenoxybenzamine 10^-8 M; tranylcypramine 10^-7 M; 10 minutes incubation. On the procedure: New-Zealand, male, white rabbits weighing 2.0 to 2.5 kg were killed by a blow on the head. The thoracic aorta segment after the aortic arch was removed and placed into a Krebs' solution (NaCl 118 mM, KCl 4.6 mM, NaHCO3 25 mM, glucose 10.5 mM, […] 1 mM, KH2PO4 1 mM, CaCl2 2.6 mM). The aorta was carefully cleaned from fat and connective tissue, and was cut into 3 mm wide and 30 mm long helical strips. Four strips were obtained from each rabbit. The strips were equilibrated at 37° C. for 60 minutes in an organ chamber filled with Krebs' solution. The strips were also oxygenated by bubbling carbogen gas (5% of carbon dioxide and 95% of oxygen) through the solution. The strips were stretched by 1 g tension.
The contractions were measured by a Hugo Sachs K-30 type strain gauge, and were registered on a Multicorder type polygraph. During the last 40 minutes of the equilibration, the MAO enzym inhibitor tranylcypramine (10^-7 M) /chemical name: (±)-trans-2-phenylcyclopropylamine/ was also added to the bath.
Any alpha-adrenergic effects of the test compounds were eliminated by 10^-8 M of phenoxybenzamine /N-(2-chloroethyl)-N-(1-methyl-2-phenoxyethyl)benzylamine/ /Clancy et al., J. Pharm. Exp. Ther., 233, 761 (1985). Testing of the serotonergic antagonistic effect was started at the 90th minute of incubation. The stability and reproducibility of the contractile response of the aortic strips to serotonin was tested by two consecutive application and wash-out procedures of 10^-6 M concentration of 5-HT, 40 minutes apart. […] 30 minutes after the second testing, a preset concentration of the test compound was added to the bath, and, after a 10 minutes incubation time, the response to 10^-6 M of 5-HT was determined in the presence of the compound to be tested.
Two different concentrations of a given compound were tested on each aortic strip by the above method. Reproducibility of the control 5-HT-evoked response was checked between testing the two concentrations of the compound.
as §1

For test [3], the target named is T2, 5-HT2A receptor (Rattus norvegicus, UniProt P14842).
T2 construct: rat brain frontal cortex membrane preparation; from tissue; host or cells: rat brain frontal cortex membrane preparation
T2 sequence (P14842 whole entry): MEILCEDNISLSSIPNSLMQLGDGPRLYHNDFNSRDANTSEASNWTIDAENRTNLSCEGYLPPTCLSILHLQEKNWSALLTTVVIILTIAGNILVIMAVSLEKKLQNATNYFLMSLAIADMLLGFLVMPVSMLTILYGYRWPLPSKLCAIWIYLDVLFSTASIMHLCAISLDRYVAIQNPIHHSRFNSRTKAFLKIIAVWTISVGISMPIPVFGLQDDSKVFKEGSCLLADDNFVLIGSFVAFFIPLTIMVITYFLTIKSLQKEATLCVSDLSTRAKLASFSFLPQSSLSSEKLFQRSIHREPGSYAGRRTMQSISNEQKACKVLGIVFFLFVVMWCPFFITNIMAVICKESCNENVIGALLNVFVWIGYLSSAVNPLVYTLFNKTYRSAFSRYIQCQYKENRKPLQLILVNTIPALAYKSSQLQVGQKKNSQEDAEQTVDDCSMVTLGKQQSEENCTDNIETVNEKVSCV
Kind of test: 5-HT2A receptor binding ([3H]ketanserine, rat brain frontal cortex membrane preparation). The following applies: tritiated ketanserine, 37° C., read-out: Inhibition of receptor binding of the radioactive ligand, 5-HT2A (Ki). On the procedure:
(§2) 5-HT2A and 5-HT2C receptor binding was measured according to the methods described by Leysen et al. /Mol. Pharmacol., 21, 301 (1981)/ and Pazos et al. /Eur. J. Pharmacol., 106, 539 (1985)/, respectively. 5-HT2A receptor binding was measured in rat brain frontal cortex membrane preparation using tritiated ketanserine /3-/2-(4-fluorobenzoyl)- -1-piperidinyl/ethyl-2,4-(1H,3H)-quinazoline-dione/(60-90 Ci/mmole) as ligand. 5-HT2C receptor binding was measured in pig brain choroid plexus membrane preparation using tritiated mesulergine /N'-/(8)-1,6-dimethyl-ergoline-8-yl/-N,N-dimethylsulfamide (70-85 Ci/mmole) as the ligand. Non-specific binding to 5-HT2A and 5-HT2C receptors were determined in the presence of 10 micro M cyproheptadine/4-(5H-dibenzo/a,d/cycloheptene-5-ylidene)-1-methylpiperidine/ and 1 micro M mianserine/1,2,3,4,10,14b-hexahydro-2-methyldibenzo-/c,f/pyrazino/1,2-a/azepine/, respectively. The final incubation volumes were 250 and 1000 microlitres. Samples were incubated for 15 and 30 minutes at 37° C. Incubation was stopped by adding 9 ml of ice-cold 50 mM tris(hydroxymethyl)-aminomethane hydrochloride (pH=7.7) to the reaction mixture. The samples were rapidly filtered through Whatman GF/B glass fiber filters using reduced pressure. Before use, the filters were soaked in a 0.05% poly-ethyleneimine solution for 2 to 3 hours. Radioactivity of the filters was determined by a scintillation spectrometer.

For test [4], the target named is T3, 5-HT2C receptor (Sus scrofa, UniProt K7GSR7).
T3 construct: pig brain choroid plexus membrane preparation; from tissue; host or cells: pig brain choroid plexus membrane preparation
T3 sequence (K7GSR7 1-457): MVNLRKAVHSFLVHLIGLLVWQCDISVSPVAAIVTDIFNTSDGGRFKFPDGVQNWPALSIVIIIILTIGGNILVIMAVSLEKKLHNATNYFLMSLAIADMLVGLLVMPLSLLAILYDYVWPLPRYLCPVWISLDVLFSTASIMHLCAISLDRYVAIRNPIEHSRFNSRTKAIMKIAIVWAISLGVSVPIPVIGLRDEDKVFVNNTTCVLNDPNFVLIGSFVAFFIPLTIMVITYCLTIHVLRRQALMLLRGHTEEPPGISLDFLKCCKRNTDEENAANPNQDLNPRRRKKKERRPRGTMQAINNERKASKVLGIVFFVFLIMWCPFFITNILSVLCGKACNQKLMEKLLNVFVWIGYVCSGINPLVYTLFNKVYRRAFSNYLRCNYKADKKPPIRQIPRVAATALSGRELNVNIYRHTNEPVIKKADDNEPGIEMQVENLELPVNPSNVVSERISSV
Kind of test: 5-HT2C receptor binding ([3H]mesulergine, pig brain choroid plexus membrane preparation). The following applies: tritiated mesulergine, 37° C., read-out: Inhibition of receptor binding of the radioactive ligand, 5-HT2C (Ki). On the procedure:
as §2

As for `Nc1nc(SCCN2CCN(Cc3ccc([N+](=O)[O-])cc3)CC2)nc(N)c1Cc1ccc(F)cc1` [Example 20, 2-[2-/4-(4-Nitrobenzyl)-1-piperazinyl/-ethylthio]-4,6-diamino-5-(4-fluorobenzyl)-pyrimidine], the IC50 – broadly, the concentration that gives 50% inhibition – in test [1] turned out to be 560 nM; in test [2], 1500 nM. For the same compound, the Ki – broadly, a measure of affinity in units of concentration, obtained from inhibition or displacement – was 203 nM in test [3] and over 100 nM in test [4].

In the case of `COc1ccc(Cc2c(N)nc(SCCN3CCN(Cc4ccccc4F)CC3)nc2N)cc1` [Example 25, 2-[2-/4-(2-Fluorobenzyl)-1-piperazinyl/-ethylthio]-4,6-diamino-5-(4-methoxybenzyl)-pyrimidine], inhibition in test [2] was half-maximal at 280 nM (IC50). In addition, the Ki in test [3] is 20 nM; in test [4], over 100 nM.

For the compound `COc1ccc(Cc2c(N)nc(SCCN3CCN(Cc4cccc(C#N)c4)CC3)nc2N)cc1` [Example 26, 2-[2-/4-(3-Cyanobenzyl)-1-piperazinyl/-ethylthio]-4,6-diamino-5-(4-methoxybenzyl)-pyrimidine], the IC50 in test [2] is 260 nM. Besides, the Ki in test [3] is 48 nM; in test [4], 45 nM.

As for `COc1cccc(CN2CCN(CCSc3nc(N)c(Cc4ccccc4OC)c(N)n3)CC2)c1` [Example 31, 2-[2-/4-(3-Methoxybenzyl)-1-piperazinyl/-ethylthio]-4,6-diamino-5-(2-methoxybenzyl)-pyrimidine], the IC50 in test [2] came to 730 nM. Further, the Ki in test [3] was over 100 nM; in test [4], 21 nM.

For `COc1cccc(CN2CCN(CCSc3nc(N)c(Cc4ccccc4Cl)c(N)n3)CC2)c1` [Example 44, 2-[2-/4-(3-Methoxybenzyl)-1-piperazinyl/-ethylthio]-4,6-diamino-5-(2-chlorobenzyl)-pyrimidine], in test [2], the midpoint of inhibition, the IC50, lay at 650 nM. Moreover, the Ki in test [3] is 93 nM; in test [4], over 100 nM.

In turn, `Nc1nc(SCCN2CCN(Cc3ccccc3Cl)CC2)nc(N)c1Cc1ccccc1Cl` [Example 45, 2-[2-/4-(2-Chlorobenzyl)-1-piperazinyl/ethylthio]-4,6-diamino-5-(2-chlorobenzyl)-pyrimidine] registered an IC50 in test [2] of 430 nM. The Ki in test [3] is 27 nM; in test [4] it was 25 nM.

In the case of `Nc1nc(SCCN2CCN(Cc3ccc([N+](=O)[O-])cc3)CC2)nc(N)c1Cc1ccc(Cl)cc1` [Example 48, 2-[2-/4-(4-Nitrobenzyl)-1-piperazinyl/-ethylthio]-4,6-diamino-5-(4-chlorobenzyl)-pyrimidine], the IC50 in test [1] is 420 nM.

As for `CN(C)c1ccc(Cc2c(N)nc(SCCN3CCN(Cc4ccccc4F)CC3)nc2N)cc1` [Example 53, 2-[2-/4-(2-Fluorobenzyl)-1-piperazinyl/-ethylthio]-4,6-diamino-5-(4-dimethylamino-benzyl)pyrimidine], the IC50 in test [2] was 470 nM. Besides, the Ki is 15 nM in test [3] and over 100 nM in test [4].

As to `CN(C)c1ccc(Cc2c(N)nc(SCCN3CCN(Cc4cccc(Cl)c4)CC3)nc2N)cc1` [Example 56, 2-[2-/4-(3-Chlorobenzyl)-1-piperazinyl/-ethylthio]-4,6-diamino-5-(4-dimethylamino-benzyl)pyrimidine], it took 900 nM to reach half-maximal inhibition in test [2] (IC50). The Ki in test [3] was 38 nM; in test [4], 57 nM.

Turning to `Nc1nc(SCCN2CCN(Cc3ccc([N+](=O)[O-])cc3)CC2)nc(N)c1Cc1ccc(Br)cc1` [Example 64, 2-[2-/4-(4-Nitrobenzyl)-1-piperazinyl/-ethylthio]-4,6-diamino-5-(4-bromo-benzyl)pyrimidine], the IC50 in test [1] worked out at 680 nM.

Compound `COc1cccc(CN2CCN(CCSc3nc(N)c(Cc4cc(OC)c(OC)c(OC)c4)c(N)n3)CC2)c1` [Example 65, 2-[2-/4-(3-Methoxybenzyl)-1-piperazinyl/-ethylthio]-4,6-diamino-5-(3,4,5-trimethoxy-benzyl)pyrimidine] displayed an IC50 in test [2] of 170 nM. Moreover, the Ki amounted to 34 nM in test [3] and 42 nM in test [4].

Regarding `COc1cc(Cc2c(N)nc(SCCN3CCN(Cc4ccccc4Cl)CC3)nc2N)cc(OC)c1OC` [Example 67, 2-[2-/4-(2-Chlorobenzyl)-1-piperazinyl/-ethylthio]-4,6-diamino-5-(3,4,5-trimethoxy-benzyl)pyrimidine], in test [2], 39 nM corresponded to half-maximal inhibition (IC50). Further, the Ki was 4.6 nM in test [3] and 8.6 nM in test [4].

Take `COc1cc(Cc2c(N)nc(SCCN3CCN(Cc4ccc([N+](=O)[O-])cc4)CC3)nc2N)cc(OC)c1OC` [Example 68, 2-[2-/4-(4-Nitrobenzyl)-1-piperazinyl/-ethylthio]-4,6-diamino-5-(3,4,5-trimethoxy-benzyl)pyrimidine]: 780 nM corresponded to half-maximal inhibition in test [2] (IC50). Besides, the Ki in test [3] is 21 nM; in test [4] it was over 100 nM.

`COc1cc(Cc2c(N)nc(SCCN3CCN(Cc4cccc(C(F)(F)F)c4)CC3)nc2N)cc(OC)c1OC` [Example 69, 2-[2-/4-(3-Trifluoromethylbenzyl)-1-piperazinyl/ethylthio]-4,6-diamino-5-(3,4,5-trimethoxybenzyl)pyrimidine] yielded an IC50 in test [2] of 96 nM. In addition, the Ki came out at 38 nM in test [3] and 26 nM in test [4].

Compound `COc1ccc(Cc2c(N)nc(SCCN3CCN(Cc4ccccc4Cl)CC3)nc2N)cc1` [Example 72, 2-[2-/4-(2-Chlorobenzyl)-1-piperazinyl/-ethylthio]-4,6-diamino-5-(4-methoxy-benzyl)pyrimidine] displayed an IC50 in test [2] of 84 nM. In addition, the Ki in test [3] worked out at 24 nM; in test [4], 20 nM.
